According to patent publication US20130089601A1, “METHOD FOR TREATING ATHEROSCLEROSIS” (KAOHSIUNG MEDICAL UNIVERSITY, priority 2009, published 2013):

Key:
Assay type in all cases: cell-based, human
VCAM-1 = experiment: Real-time qPCR of VCAM-1 mRNA in HUVECs co-cultured with transfected HASMCs; details: co-cultured with microRNA-195-transfected HASMCs
Procedure: HASMCs were transfected with negative control microRNA or microRNA-195 with or without the presence of oxLDL. MicroRNA-195-transfected HASMCs were co-cultured with HUVEC. Real-time qPCR analysis of mRNA levels for genes surrogating endothelial functions as well as atherosclerosis, such as vascular cell adhesion molecule-1 (VCAM-1), […] (TNF-a) and interleukin-6 (IL-6), and vasodilation gene, endothelial nitric oxide synthase (eNOS), were determined in HUVECs.

[1] = tested on: vascular smooth muscle cells (VSMC); experiment: WST-1 cell proliferation assay of VSMC stimulated with ox-LDL; details: ox-LDL 40 μg/ml, 24 hours
Procedure: The experiments were conducted in the primary aortic smooth muscle cells (purchased as cryopreserved tertiary cultures from Cascade Biologics, OR, USA) at passages 4 to 8. The VSMC cells were maintained in an M231 culture medium supplemented with fetal bovine serum (FBS, 5%), human epidermal growth factor (10 ng/ml), human basic fibroblast growth factor (3 ng/ml), insulin ([…]), penicillin (100 units/ml), streptomycin ([…]), and Fungizone ([…]). The cultures were kept at a temperature of 37° C. in an atmosphere of 5% CO2 in air.
The transfection was performed using a siPort NeoFx reagent (Ambion) and VSMC cell proliferation and migration were evaluated 24 hours after the microRNA-195 transfection. In addition, simvastatin was used, a widely used lipid lowering drug and anti-atherosclerosis drug, to test the influence of microRNA-195 levels by simvastatin.
VSMC is an established model for atherosclerosis studies and when atherosclerosis incursion VSMC proliferation increases. A VSMC proliferation rate was used as a surrogate for the development of atherosclerosis, which was assessed by WST-1. By using a 1-3 μL siPort NeoFx (Ambion) reagent, 0-120 nM of microRNA-195 (Pre-miR™ miRNA, hsa-miR-195 (product ID PM10827), Ambion Inc.) was transfected into the VSMC cells while they were incubated with ox-LDL (40 μg/ml) for 24 hours. […] The microplates were then read by a spectrophotometer by measuring the absorbance of a dye with a wavelength of 450 nm and a reference wavelength of 600 nm (Benchmark PLUS Microplate Spectrophotometer, Bio-Rad) and plotted. […]
Cell proliferation of the VSMC was evaluated following incubation in ox-LDL (40 μg/ml) for 24 hours in the presence of microRNA-195 (Pre-miR miRNA, hsa-miR-195 (product ID PM10827), Ambion Inc.) (100 nM), simvastatin (1 nM) or Panax Notoginseng (in a form of water extract with concentration of 1 mg/ml; Chuang Song Zong Pharmaceutical co. Ltd), or in the presence of microRNA-195 (100 nM) with simvastatin (1 nM) or with Panax Notoginseng (in a form of water extract with concentration of 1 mg/ml). […]

[2] = tested on: THP-1 cells adherent to HUVEC; experiment: In vitro adhesion assay of THP-1 cells to HUVEC co-cultured with transfected HASMCs; details: in the presence of ox-LDL, vs NC-miR
Text: MicroRNA-195 mimic, microRNA-195 inhibitor and negative control microRNA (NC-miR) were purchased from Ambion Inc. (TX, USA) with the sequences information shown as microRNA-195 mimic, 5′-[…]-3′ (SEQ ID NO: 5); microRNA-195 inhibitor, 5′-[…]-3′ (SEQ ID NO: 6); negative control sequence, 5′-AGUACUGCUUACGAUACGG-3′ (SEQ ID NO: 7). MicroRNA -195 inhibitor was used to specifically bind to and inhibit endogenous microRNA-195. The NC-miR is a random sequence pre-miR molecule that has been extensively tested in human cell lines and tissues and validated to produce no identifiable effects on known miRNA function. […]
At first, human aorta smooth muscle cells (HASMCs) were seeded on the inner side of Millicell® with the PET membrane (Millipore, Hanging 24-well cell culture inserts) at a density of 3×10^5 cells/cm^2 and transfected with microRNA-195 mimic mimic by using lipofectamine2000 for 24 hours. […] Then 4 ml of new culture medium was put in each dish and they were incubated overnight at 37° C. in 5% CO2 and 95% air humidified atmosphere to get ready for use in adhesion experiments of THP-1 cells.
To visualize the THP-1 cells adherent to the HUVEC-HASMC co-culture, the THP-1 cells were labeled with a fluorescent dye, calcein-AM. Fluorescence-labeled cells were resuspended in 4 ml of IMDM containing 10% FCS and prepared for use in adhesion experiments. […]

With “microRNA-195: Pre-miR miRNA, hsa-miR-195 (product ID PM10827), Ambion Inc., which mimics precursor for mature human miR-195; mimic 5′-UAGCAGCACAGAAAUAUUGGC-3′ (SEQ ID NO: 5) (chemistry not given here)” as the substance, how does the “VCAM-1 mRNA level in HUVECs” value (VCAM-1) read?
The value was “suppresses”.

And the “reduction of VSMC cell proliferation” value ([1]; 30 nM transfected)?
The value was 21%.

What about the “reduction of VSMC cell proliferation” value ([1]; 60 nM transfected) of the same substance?
Its value is 29%.

And the “reduction of VSMC cell proliferation” value ([1]; 120 nM transfected)?
The value was 45%.

And the “THP-1 cells adhering to HUVEC” value [2]?
The value was “fewer”.
